Experimental data: patent US12172988B2, “Anticancer and antifungal splice modulators” (priority 2021, dated 2024)
Where two headings read alike, the source gives them in different places.

Columns and labels:
Type in all cases: cell-based, human
[1] = test system: HCT116 colorectal carcinoma cells; assay: MTS cell viability / cell growth inhibition assay; conditions: for GI50: Homo sapiens, HCT-116, 72 h
Method: With milligram quantities of 1a-1i at hand, we began our studies to evaluate the relative efficacy of each analogue using cell growth inhibition studies in HCT116 colorectal carcinoma cells. As reported in FIG. 3, GI50 values were collected for each analog after a 72 h treatment using the MTS cell viability assay (Table 12). Under these conditions, the natural FD-895 (1), 3S-FD-895 (1a) 17S-FD-895 (1d), 17-methoxy-FD-895 (1e) provided activities of <10 nM.
HCT-116 cells was cultured in McCoy's 5a (Life Technologies) supplemented with 10% fetal bovine serum (FBS), 2 mM L-glutamine, and 100 U mL^−1 of penicillin and 100 μg mL^−1 of streptomycin at 37° C. in an atmosphere of 5% CO2. Compounds were dissolved in DMSO (MilliporeSigma). Cells were treated with 1-1j in media with ≥0.5% DMSO for 4-72 h.
Studies were conducted in […] cell culture plates. HCT-116 plated at 5×10^3 cells/well were cultured for 24 h and then treated with analogs 1-1j for 4-72 h, then washed twice with 100 μL PBS. PBS (100 μL) was added to each well, followed by 20 μL of CellTiter Aqueous One Solution (Promega). After 2 h at 37° C., absorbance readings were taken at 490 nm (test wavelength) and 690 nm (reference wavelength). GI50 values were calculated in Prism (GraphPad) using greater 3 replicates.
Cells were treated with 1 or 1a-1j in media (McCoy's 5a (Life Technologies) supplemented with 10% FBS, 2 mM L-glutamine, and 100 U mL^−1 of penicillin and 100 μg mL^−1 of streptomycin 0.5% DMSO) for 4 h or 24 h. Untreated cells were considered were used as negative control. Total RNA was isolated using mirVana miRNA isolation kit (Life Technologies). A 1 μg sample of RNA was subjected to DNAseI from a TURBO DNA free kit (Life Technologies). The cDNA was prepared by using SuperScript III reverse transcriptase kit (Life Technologies). The amount of unspliced RNA for different genes was determined using Power SYBR Green PCR master mix (Applied Biosystems) by qPCR using specific primers for each gene. qPCR using 2.5 μM of each primer was performed on 5 ng of the obtained cDNA. qPCR conditions were as follows: 95° C. for 10 min for one cycle, then 95° C. for 10 min for one cycle, then 95° C. for 30 s, 55° C. for 60 s, 72° C. for 60 s, for 40 cycles using the MXPro. Quantification cycle (Cq) values were identified for each sample, and then RNA levels were calculated using 2-ΔΔCT method. GAPDH was used as a control for normalization. At least three replicates were conducted for each compound. Namely, all genes explored in this study were evaluated from the same cell cultures. Here, individual cultures were used for each compound explored and at least three replicates were used for each compound. While experimental variation occurred between the different compound treatments, the levels of the different intron retention, exon skipping or RNA expression were collected from the same cellular material. Statistics were calculated using a standard one-way ANOVA; p values were represented so that * signifies p<0.0001. HCT116 were treated with analogs 1-1j ranging from 0.1-5000 nM for 72 hours, then cell viability was measured using the MTS assay. GI50 values and confidence intervals were calculated using GraphPad (Table 12).

DNAJB1 = assay: qPCR splicing analysis, DNAJB1 intron retention; conditions: HCT116, 4 h, 20 times GI50, qPCR relative to GAPDH
Method: (§1) HCT116 tumor cells were treated with each analogue at 20 times the G150 value (Table 12) for 4 hours and then cellular RNA was isolated and purified for qPCR. Primers were designed to evaluate intron retention or exon skipping, direct responses to splice modulator treatment. Genes evaluated included those involved in splicing regulation (SF3A1, SF3A3, SF3B1, SF3B2), apoptosis (MCL-1L), protein folding (DNAJB1), and cell cycle regulation (AURKA, PLK-1) relative to the unspliced control GAPDH. For alternative splicing regulator (SF2), primers were designed to evaluate gene expression, which changes in response splice modulator treatment for SF2 relative to the unspliced control GAPDH. (−) denotes untreated cells.
as §1, with “analogues” for “each analogue”, “100 nM (light grey), 250 nM (grey), or 500 nM (black)” for “20 times the G150 value (Table 12)”, “24 h” for “4 hours”, “(MCL-1L), and” for “(MCL-1L),”, “(DNAJB1),” for “(DNAJB1), and cell cycle regulation (AURKA, PLK-1)”, “(—)” for “(−)”
(§2) Next, we turned our efforts to explore the ability of these analogues to modulate splicing. […] We treated cells for 4 h so that we could evaluate early changes in splicing activity, and then cellular RNA was isolated and purified for analyses by qPCR (FIG. 14). Most importantly, none of the concentrations tested led to significant changes in cell viability, ensuring that changes in gene expression were not due to cell death.
(§3) For these studies, we evaluated the expression of genes involved in splicing regulation (SF3A1, SF3A3, SF3B1, SF3B2), apoptosis (MCL-1L), protein folding (DNAJB1), and cell cycle regulation (AURKA, PLK-1) relative to the unspliced control GAPDH. Primers were designed to evaluate intron retention or exon skipping, direct responses to splice modulator treatment. The master splicing regulator alternative splicing factor (SF2) was also evaluated, with the primers for this gene designed to evaluate overall gene expression, which changes in response to splice modulator treatment.
(§4) From this 4 h study (FIG. 14), a small set of analogs (1, 1b, 1g, 1d, 1e, 1i and 1j) were selected to evaluate if effects on splicing when presented for a longer 24 h period. […] Using identical procedures as that used for 4 h, HCT116 cells were treated with three concentrations (100 nM, 250 nM and 500 nM) of each analog for 24 h. Multiple concentrations were used as a means to check further validate the use of the GI50 concentration in our prior study (FIG. 14). As before, none of the concentrations tested led to significant changes in cell viability over the 24-hour time window, ensuring that changes in gene expression were not due to cell death.
(§5) Cells were treated with 1 or 1a-1j in media (McCoy's 5a (Life Technologies) supplemented with 10% FBS, 2 mM L-glutamine, and 100 U mL^−1 of penicillin and 100 μg mL^−1 of streptomycin 0.5% DMSO) for 4 h or 24 h. Untreated cells were considered were used as negative control. Total RNA was isolated using mirVana miRNA isolation kit (Life Technologies). […]

AURKA = assay: qPCR splicing analysis, AURKA exon skipping / expression; conditions: HCT116, 4 h, 20 times GI50, qPCR
Method: as §1
Next, we turned our efforts to explore the ability of these analogues to modulate splicing. […] We treated cells for 4 h so that we could evaluate early changes in splicing activity, and then cellular RNA was isolated and purified for analyses by qPCR (FIG. 14). […]
as §3, with “Primers were designed to evaluate intron retention or exon skipping, direct responses to splice modulator treatment.” left out, “treatment. […]” for “treatment.”
Cells were treated with 1 or 1a-1j in media (McCoy's 5a (Life Technologies) supplemented with 10% FBS, 2 mM L-glutamine, and 100 U mL^−1 of penicillin and 100 μg mL^−1 of streptomycin 0.5% DMSO) for 4 h or 24 h. […] The amount of unspliced RNA for different genes was determined using Power SYBR Green PCR master mix (Applied Biosystems) by qPCR using specific primers for each gene. qPCR using 2.5 μM of each primer was performed on 5 ng of the obtained cDNA. qPCR conditions were as follows: 95° C. for 10 min for one cycle, then 95° C. for 10 min for one cycle, then 95° C. for 30 s, 55° C. for 60 s, 72° C. for 60 s, for 40 cycles using the MXPro. […]

SF3A1 = assay: qPCR splicing analysis, SF3A1 intron retention; conditions: HCT116, 4 h, 20 times GI50, qPCR relative to GAPDH
Method: as §1
as §1, with “analogues” for “each analogue”, “100 nM (light grey), 250 nM (grey), or 500 nM (black)” for “20 times the G150 value (Table 12)”, “24 h” for “4 hours”, “(MCL-1L), and” for “(MCL-1L),”, “(DNAJB1),” for “(DNAJB1), and cell cycle regulation (AURKA, PLK-1)”, “(—)” for “(−)”
as §2, §3, §4
as §5, with “Technologies). A 1 μg sample of RNA was subjected to DNAseI from a TURBO DNA free kit (Life Technologies). The cDNA was prepared by using SuperScript III reverse transcriptase kit (Life Technologies).” for “Technologies).”

CC[C@H](OC)[C@@H](C)[C@H]1O[C@@H]1[C@@H](O)[C@H](C)/C=C/C=C(\C)[C@H]1OC(=O)C[C@H](O)CC[C@@](C)(O)[C@H](OC(C)=O)/C=C/[C@@H]1C [Analog 1h, 7R,17S-FD-895]
fold less effective compared to 1b ([1]; HCT116 GI50, compared to 1b): 1.8 fold | fold less effective compared to 1d ([1]; HCT116 GI50, compared to 1d): 380 fold | GI50 ([1]; read-out: GI50 value): 806 nM | GI50 ([1]; read-out: GI50 value (text)): 806 nM

CC[C@H](OC)[C@@H](C)[C@H]1O[C@@H]1[C@H](O)[C@H](C)/C=C/C=C(\C)[C@H]1OC(=O)C[C@@H](O)CC[C@@](C)(O)[C@@H](OC(C)=O)/C=C/[C@@H]1C [Analog 1a, 3S-FD-895]
DNAJB1 intron 2 retention (level of intron retention) (DNAJB1): highest level of intron retention | effect on exon 4 skipping in AURKA (AURKA): most potent effect | cell growth inhibitory activity compared to FD-895 ([1]; HCT-116 cells): compromised activity | GI50 ([1]; read-out: GI50 value): 2.21 nM | GI50 ([1]; read-out: GI50 value (text)): < 10 nM | SF3A1 intron 6 retention (level of intron retention) (SF3A1): more effective than 1

CC[C@H](OC)[C@@H](C)[C@H]1O[C@@H]1[C@H](O)[C@H](C)/C=C/C=C(\C)[C@@H]1OC(=O)C[C@H](O)CC[C@@](C)(O)[C@@H](OC(C)=O)/C=C/[C@H]1C [Analog 1c, 10R,11R-FD-895]
GI50 ([1]; read-out: GI50 value): 36600 nM | GI50 ([1]; read-out: GI50 value (text)): 37000 nM

CC[C@H](OC)[C@@H](C)[C@H]1O[C@@H]1[C@@H](OC)[C@H](C)/C=C/C=C(\C)[C@H]1OC(=O)C[C@H](O)CC[C@@](C)(O)[C@@H](OC(C)=O)/C=C/[C@@H]1C [Analog 1f, 17-methoxy-17S-FD-895]
fold loss in activity ([1]; HCT116 GI50, double modification (methylation and inversion at C17)): 10 fold | GI50 ([1]; HCT116, 72 hours, MTS assay, 0.1-5000 nM, read-out: GI50 value): 37.6 nM | GI50 ([1]; HCT116, 72 h treatment, MTS cell viability assay, read-out: GI50 value): 38 nM | SF3A1 intron 6 retention (level of intron retention) (SF3A1): more effective than 1
